Measurements as given in the NIST ThermoML archive (doi:10.1021/je901020a).

Legend:
[1] = xn = mol fraction of the nth substance listed; conditions: 101 kPa, Liquid; for speed of sound: Pulse-echo method
[2] = refractive index (Na D-line) (dimensionless); xn = mol fraction of the nth substance listed; conditions: 101 kPa, Liquid, Standard Abbe refractometry

Cc1cccc(C)c1 [1,3-dimethylbenzene] + C1CCCCCCC1
x2 = 0
Conditions	mass density, [1] [kg/m3]	refractive index, [2]	speed of sound, [1] [m/s]
298.15 K	859.8	1.49466	1321
313.15 K	846.9	1.48653	1259

C1CCCCC1 [cyclohexane] + Cc1cc(C)cc(C)c1
x1 = 1
Conditions	mass density, [1] [kg/m3]	refractive index, [2]	speed of sound, [1] [m/s]
298.15 K	773.9	1.4236	1255
313.15 K	759.6	1.41516	1182

Cc1cc(C)cc(C)c1 [1,3,5-trimethylbenzene] + CC1CCCCC1
Conditions	mass density, [1] [kg/m3]	refractive index, [2]	speed of sound, [1] [m/s]
298.15 K, x2 = 0	861.1	1.49693	1336
298.15 K, x2 = 0.0463	856.7	1.49346	1330
298.15 K, x2 = 0.0962	851.9	1.48973	1323
298.15 K, x2 = 0.197	842.2	1.48211	1310
298.15 K, x2 = 0.2868	833.5	1.47524	1298
298.15 K, x2 = 0.3963	822.8	1.46685	1283
298.15 K, x2 = 0.4972	813	1.45909	1271
298.15 K, x2 = 0.5956	803.4	1.45153	1259
298.15 K, x2 = 0.6974	793.6	1.44373	1247
298.15 K, x2 = 0.7932	784.3	1.43635	1236
298.15 K, x2 = 0.8942	774.8	1.42859	1226
298.15 K, x2 = 0.9497	769.6	1.42444	1220
313.15 K, x2 = 0	848.8	1.48923	1277
313.15 K, x2 = 0.0524	843.8	1.48547	1269
313.15 K, x2 = 0.1075	838.5	1.48144	1262
313.15 K, x2 = 0.2051	829.1	1.47418	1248
313.15 K, x2 = 0.314	818.5	1.466	1233
313.15 K, x2 = 0.4067	809.5	1.45892	1221
313.15 K, x2 = 0.5093	799.5	1.45103	1207
313.15 K, x2 = 0.6083	789.8	1.44335	1195
313.15 K, x2 = 0.7071	780.1	1.43558	1183
313.15 K, x2 = 0.8106	770.1	1.42752	1171
313.15 K, x2 = 0.9093	760.4	1.41983	1159
313.15 K, x2 = 0.9596	755.7	1.41588	1154
